Reference: US11591297B2, “Compound having PD-L1 expression-suppressing action” (TOHOKU UNIVERSITY, priority 2019, dated 2023)

System: human IL-2 promoter
Assay: IL-2luc activity (luciferase under control of IL-2 promoter) of Jurkat cells co-cultured with IFN-γ-treated A549 cells
Type: cell-based
Conditions: control (DMSO) IFN-γ(−) defined as 100%, control IFN-γ(+) 54.5
Method: The pIL-2luc obtained by the insertion of a human IL-2 promoter sequence (−945 to 53) into the multiple cloning site of pGL-3 vector basic (Promega) was preliminarily transfected into Jurkat cells. PMA and PHA-L were added into the Jurkat cells and the cells were pre-cultured. Simultaneously, IFN-γ was added into A549 cells and the cells were pre-cultured. The supernatants of each culture liquid at the time of the pre-culture of each cell were removed, the culture liquids were co-cultured in new medium. The luciferase activity of the co-cultured Jurkat cells was measured. Each test compound was added into the A549 cell culture liquid during the pre-culture.
A549 cells were suspended in DMEM medium at a concentration of 3×10^5 cells/mL to prepare a suspension, and the suspension was dispensed into a T25 flask in an amount of 5 mL and cultured
Separately, 5 μg of pIL-2luc DNA and 15 μL of TransIT-Jurkat reagent (Takara Bio: Cat #V2124) were added into 500 μL of serum-free medium, and the medium was allowed to stand at room temperature for 15 minutes. […]
LAS in Luciferase Assay System was dissolved in LAB to prepare a luciferase reagent. 10 μL of the sample was mixed with 50 μL of the luciferase reagent, and the chemiluminescence (Relative Luminescence Intensity: RLU) of the sample was measured using GloMax20/20 (Promega). […]

## O=C(Nc1ccc(Oc2ccc(S(F)(F)(F)(F)F)cc2)cc1)C1CCCN(C(=O)c2ccc([N+](=O)[O-])cc2)C1 (centres unmarked) [Example 5, 1-(4-Nitrobenzoyl)-N-(4-(4-(pentafluorosulfanyl)phenoxy)phenyl)piperidine-3-carboxamide]
0.5 μM
  activity at 0.5 µM: 63.5%
1 μM
  activity at 1 µM: 85.9%
